The source of these data is patent US9725430B2, “Use of small molecule inhibitors targeting EYA tyrosine phosphatase” (Children's Hospital Medical Center, priority 2013, dated 2017).

In general, IC50 refers to the midpoint of a concentration-inhibition curve.

Some results are limits rather than exact numbers.

One data set addresses EYA3 (Homo sapiens (Human), UniProt Q99504). The data set is described as follows: pNPP assay, full-length human recombinant EYA3. Format: biochemical. An excerpt: The catalytic domain of mouse Eya3 (“ED”, comprising residues 223-510 of Eya3) was purified as described by Rayapureddi, J. P. et al. (FEBS Lett 580, 3853-3859 (2006), incorporated by reference in its entirety). For full-length Eya3 (“hEYA3”), human Eya3 isoform 2 (representing the major species identified in human cell lines by mass spectrometry, expressed as residues 127-573 of NM_001990, isoform 1) was sub-cloned into pDEST565 to express a poly-histidine-Glutathione-S-transferase (His-GST) tagged fusion protein with a TVMV protease site. The protein was purified by glutathione-S-transferase affinity chromatography followed by TVMV cleavage, Ni-NTA chromatography, and finally size exclusion chromatography. […]
The compounds were then tested using full-length human recombinant, purified EYA3 and pNPP as a substrate. Compounds were dissolved in DMSO and diluted as needed. […] Reactions were incubated at 30° C. for 30 minutes and quenched with 100 mM EDTA pH 10. IC50 values were then calculated directly from regression curves using PRISM software. All reported values are the mean of two independent experiments.

A further data set deals with PTP1B (Homo sapiens (Human), UniProt P18031). The data set is described as follows: PTP1B-catalyzed pNPP hydrolysis. The following applies: for IC50: pNPP substrate. Format: biochemical. The method, then:
The catalytic domain of human Eya2 (“hEYA2(ED)”) was similarly sub-cloned as a polyhistidine fusion construct in the vector pDEST-527. Fusion protein was purified by NiNTA chromatography and followed by size-exclusion chromatography over a Superdex-75 column. The relative purity of protein samples was determined using SDS-PAGE. PTP1B was purified as described previously (Rayapureddi, J. P. et al. Nature 426, 295-298 (2003), incorporated by reference in its entirety).
An inhibitory assay was conducted using the previously described p-nitrophenylphosphate assay (Rayapureddi, J. P. et al. Nature 426, 295-298 (2003)). Briefly, ED was incubated in a reaction mixture containing 20 mM MES pH 6, 2 mM MgCl2, 125 μM inhibitor, 3.4 mM para-nitrophenol phosphate (pNPP) and 0.01 μg/μL enzyme.
PTP1B is a classical Cys-based tyrosine phosphatase.

A further data set relates to MCF10A(EYA2) cells. The data set is described as follows: Transwell migration of MCF10A-EYA2 cells. Format: cell-based. The following applies: 7.5 μM. An excerpt:
The tyrosine phosphatase activity of Eya3 and Eya2 promotes single cell motility in breast cancer cells (Pandey, R. N. et al. Oncogene (2010) 29:3715-3722, incorporated by reference in its entirety). EYA2 is over-expressed in breast cancers and is associated with increased metastasis and a poorer outcome (Farabaugh, et al. Oncogene (2011) 259). […] Overexpression of EYA2, but not the tyrosine-phosphatase dead mutant, promoted cell motility (FIG. 2a). […] This effect was dose-dependent (FIG. 2d) and compound (1a) was able to reduce cell motility by over 50% at the lowest concentration (1 μM) tested.
(§1) In order to determine whether EYA3 knock down would affect cell migration, a modified Boyden chamber assay was used to measure HUVEC migration. Briefly, human umbilical vein endothelial cells (HUVECs) were purchased from Lonza (Walkersville, Md.) and maintained in the endothelial cell growth medium (PromoCell, Hleidelberg, Germany), under a 5% CO2 atmosphere. MCF10A cells from ATCC were stably transfected with either pcDNA 3.2N5-DEST (vector control), V5-EYA2 or V5-EYA2(D250N). Transwell migration experiments were performed as previously described (Pandey, R. N. et al. Oncogene 29, 3715-3722, (2010)).

Data set [1] concerns HUVECs. The data set is described as follows: HUVEC cell viability assay (WST-8). Format: cell-based, human. The conditions noted are these: 3 days of exposure. The method, then: Additionally, a cell viability assay was conducted over 3 days of exposure to test compounds 1, 1a and 1g in order to assess both the possibility of immediate cellular toxicity as well as any effect on cell proliferation. HUVECs were seeded and equilibrated for 24 hours before addition of the test compounds. Cellular metabolic activity was measured at defined time-points using the tetrazolium dye WST-8 to quantify NAD(P)H-dependent cellular oxidoreductase enzyme activity.
Background: Tetrazolium dyes change colour on reduction, which living cells bring about.

Data set [2] has as its system HUVECs. As to the kind of experiment: HUVEC tubulogenesis on Matrigel. Format: cell-based, human. The following applies: for tube formation on Matrigel: HUVEC. An excerpt:
Primary endothelial cells (ECs) on basement membrane rapidly attach, align themselves and form capillary-like tubules with lumens and tight cell-cell contacts. […] To better understand the stage in matrigel tube-formation affected by compound 1g cells plated on growth-factor reduced matrigel and treated with either vehicle or compound 1g were followed. Differences become apparent within the first two hours and were clearly visible at the 6-hour time-point. The ECs are much less organized in the presence of compound 1g. […] The effect of compound 1g on tube formation was attenuated in the presence of high concentrations of fetal bovine serum (FBS), likely reflecting non-specific protein binding.
The EYA inhibitors were also tested in tubulogenesis assays. The tubulogenesis assays were performed in 15-well micro-slide (ibidi LLC, Verona Wis.), using growth factor-reduced matrigel (BD Bioscience, Billerica, Mass.). The matrix was prepared by loading 10 μl of matrigel in each micro-slide well and allowing it to solidify for 30 minutes at 37° C. HUVECs were trypsinized and resuspended at 100.000 cell/ml in EBM+2.5% FBS. 50 μl (5,000 cell) were loaded on top of the solidified matrigel and the preparation was incubated for 20 hours at 37° C. in a humidified incubator in a 5% CO2 atmosphere. Bright field images were taken using an inverted microscope at 2.5× magnification, which allowed imaging of the whole well in two pictures that were later merged in Photoshop. Tubular structures were traced and counted using NeuroJ (NIH, USA). In experiments with inhibitor, the inhibitor was added to the cell suspension before loading. Each sample was loaded in triplicate, and each treatment was repeated for reproducibility.

In data set [3] the test system is HUVECs. As to the kind of experiment: HUVEC transwell migration. Format: cell-based, human. The conditions noted are these: 5 μM.
Excerpt: as §1

Data set [4] deals with HUVECs. As to the kind of experiment: HUVEC proliferation (MTT). Format: cell-based, human. The following applies: 5 μM, 24 hours.
In a further data set the test system is retinal vasculature. As to the kind of experiment: Mouse model of oxygen-induced retinopathy. Format: in vivo, mice. The conditions noted are these: 100 or 50 pmoles injected at P12, analyzed at P16. An excerpt: The mouse model of oxygen-induced retinopathy mimics the retinopathy characteristic of proliferative retiopathy conditions such as retinopathy of prematurity and diabetic retinopathy. […] The resulting retinal hypoxia after day 12, when pups were brought back to 20% O2, induced excessive hypoxia-driven angiogenesis. A characteristic large avascular area at the center of the retina and excessive regrowth of superficial vessels (pre-retinal neovascular tufts) in the mid-peripheral region was observed. […] In contrast, inhibition of either Vegf or Vegfr2 in OIR experiments suppresses both neovascular tuft formation and revascularization.

EYA3, sequence (Q99504 127-573): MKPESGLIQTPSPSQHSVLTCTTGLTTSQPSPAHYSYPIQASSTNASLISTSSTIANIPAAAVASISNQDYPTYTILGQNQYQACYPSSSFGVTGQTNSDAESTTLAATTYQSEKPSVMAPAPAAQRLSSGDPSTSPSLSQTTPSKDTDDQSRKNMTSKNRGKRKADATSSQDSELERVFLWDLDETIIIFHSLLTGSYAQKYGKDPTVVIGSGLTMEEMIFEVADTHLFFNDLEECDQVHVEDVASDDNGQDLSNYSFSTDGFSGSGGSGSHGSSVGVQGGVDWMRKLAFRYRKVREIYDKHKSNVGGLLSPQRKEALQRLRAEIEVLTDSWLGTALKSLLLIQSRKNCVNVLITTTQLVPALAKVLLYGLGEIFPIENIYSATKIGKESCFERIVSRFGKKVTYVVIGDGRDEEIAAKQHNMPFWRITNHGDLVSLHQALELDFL
PTP1B, sequence (P18031 whole entry, species assumed, the tested form may be a part): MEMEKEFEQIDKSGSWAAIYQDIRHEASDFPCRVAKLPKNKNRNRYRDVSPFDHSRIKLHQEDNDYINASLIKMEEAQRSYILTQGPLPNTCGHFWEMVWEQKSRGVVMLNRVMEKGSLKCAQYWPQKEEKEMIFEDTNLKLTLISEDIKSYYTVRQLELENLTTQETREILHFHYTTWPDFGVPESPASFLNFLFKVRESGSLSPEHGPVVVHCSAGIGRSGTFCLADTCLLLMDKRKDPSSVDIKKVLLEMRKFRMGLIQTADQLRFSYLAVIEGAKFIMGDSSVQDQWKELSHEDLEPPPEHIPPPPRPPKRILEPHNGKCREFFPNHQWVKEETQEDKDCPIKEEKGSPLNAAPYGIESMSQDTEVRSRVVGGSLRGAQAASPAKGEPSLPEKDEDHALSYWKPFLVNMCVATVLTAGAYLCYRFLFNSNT

With `CCc1oc2ccccc2c1C(=O)c1ccc(O)cc1` [Compound 1a], the IC50 is 17 µM on EYA3 (pNPP substrate, full-length EYA3) and above 150 µM against PTP1B. Moreover, the “fold greater activity towards EYA3 than PTP1B” value at PTP1B (EYA3 vs PTP1B) is on record as “over 100 fold”. Besides, the cell migration entry with MCF10A(EYA2) cells is “significantly inhibited cell migration”. In addition, the cell viability entry with HUVECs [1] was “reduced cell viability”. The “tube formation on Matrigel” value in the data set on HUVECs [2] is “inhibit EYA3 protein in cell migration and tubulogenesis”. The HUVEC cell motility entry in the data set with HUVECs [3] is on record as “attenuated HUVEC cell motility”. The HUVEC cell proliferation entry with HUVECs [4] was “no effect on cell proliferation”. The “formation of neovascular tufts” value in the data set with retinal vasculature is “Significant reduction in the formation of neovascular tufts”.

For `CCc1oc2ccccc2c1C(=O)c1cc(Br)c(O)c(Br)c1` [Compound 1, Benzbromarone, reference compound], the “inhibitory effect in presence of detergent” value on EYA3 (0.01% Triton X-100) is given as “retained”. In addition, the “mode of inhibition (substrate titration)” value on EYA3 (increasing substrate concentration) was “not a competitive inhibitor”. Also, on PTP1B, the IC50 worked out at 53.8 µM. The cell migration result in the data set with MCF10A(EYA2) cells is recorded as “significantly inhibited cell migration”. Also, the cell viability entry in the data set on HUVECs [1] is on record as “reduced cell viability”. Further, in the data set with HUVECs [2] (7.5 μM), the tubulogenesis inhibition result is reported as “effective at the highest concentrations tested”. The “tube formation on Matrigel” value with HUVECs [2] is “inhibit EYA3 protein in cell migration and tubulogenesis”. Further, in the data set with HUVECs [3], the HUVEC cell motility result is “attenuated HUVEC cell motility”. Also, the HUVEC cell proliferation entry in the data set on HUVECs [4] was “no effect on cell proliferation”. Moreover, in the data set with retinal vasculature, the “formation of neovascular tufts” value was “Significant reduction in the formation of neovascular tufts”.
